Common to all, as to test: biochemical
Common to all, as to type: biochemical

The target of assay [1] is T1, 363 human kinases (including Aurora A/B/C) (Homo sapiens, UniProt Q06418).
T1 sequence (Q06418 41-890): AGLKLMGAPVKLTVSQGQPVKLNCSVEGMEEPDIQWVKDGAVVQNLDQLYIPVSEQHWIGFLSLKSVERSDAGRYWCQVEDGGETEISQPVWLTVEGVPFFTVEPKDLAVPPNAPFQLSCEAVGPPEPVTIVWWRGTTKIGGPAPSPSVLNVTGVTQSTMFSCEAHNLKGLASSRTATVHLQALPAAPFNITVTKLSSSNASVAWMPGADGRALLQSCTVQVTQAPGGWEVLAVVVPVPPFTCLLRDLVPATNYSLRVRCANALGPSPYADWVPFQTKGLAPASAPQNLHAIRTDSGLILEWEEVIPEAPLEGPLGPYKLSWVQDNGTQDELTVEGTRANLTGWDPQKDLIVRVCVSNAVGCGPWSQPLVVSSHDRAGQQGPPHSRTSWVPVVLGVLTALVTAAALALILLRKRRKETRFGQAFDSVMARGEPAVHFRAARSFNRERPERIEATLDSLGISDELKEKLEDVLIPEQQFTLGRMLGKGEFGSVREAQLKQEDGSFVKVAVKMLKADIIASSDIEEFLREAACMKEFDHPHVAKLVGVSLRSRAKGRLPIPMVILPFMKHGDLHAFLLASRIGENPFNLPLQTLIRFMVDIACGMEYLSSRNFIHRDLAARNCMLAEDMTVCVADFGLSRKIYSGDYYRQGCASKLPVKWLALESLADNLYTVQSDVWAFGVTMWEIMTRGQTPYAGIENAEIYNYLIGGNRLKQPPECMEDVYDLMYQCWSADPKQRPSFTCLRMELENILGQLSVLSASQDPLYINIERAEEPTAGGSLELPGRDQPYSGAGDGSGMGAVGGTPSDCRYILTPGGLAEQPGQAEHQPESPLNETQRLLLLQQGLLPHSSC
The following applies: TYRO3/SKY; for remaining activity at 0.1 µM: 100 nM; for remaining activity at 0.1 µM / remaining activity at 0.5 µM: read-out: % Enzyme Activity (relative to DMSO controls).
From the text: (§1) However, the Aurora A/B selectivity ratios derived from our in vitro and in vivo data can be compared to prioritize inhibitors.

The target of assay [2] is 363 human kinases (including Aurora A/B/C) (Homo sapiens, UniProt Q13555). The following applies: CAMK2g, [ATP] 2.5 µM; for remaining activity at 0.1 µM: 100 nM; for remaining activity at 0.1 µM / remaining activity at 0.5 µM: read-out: % Enzyme Activity (relative to DMSO controls).
From the text: as §1
The target of assay [3] is T2, 363 human kinases (including Aurora A/B/C) (Homo sapiens, UniProt P52333).
T2 sequence (P52333 1-1124): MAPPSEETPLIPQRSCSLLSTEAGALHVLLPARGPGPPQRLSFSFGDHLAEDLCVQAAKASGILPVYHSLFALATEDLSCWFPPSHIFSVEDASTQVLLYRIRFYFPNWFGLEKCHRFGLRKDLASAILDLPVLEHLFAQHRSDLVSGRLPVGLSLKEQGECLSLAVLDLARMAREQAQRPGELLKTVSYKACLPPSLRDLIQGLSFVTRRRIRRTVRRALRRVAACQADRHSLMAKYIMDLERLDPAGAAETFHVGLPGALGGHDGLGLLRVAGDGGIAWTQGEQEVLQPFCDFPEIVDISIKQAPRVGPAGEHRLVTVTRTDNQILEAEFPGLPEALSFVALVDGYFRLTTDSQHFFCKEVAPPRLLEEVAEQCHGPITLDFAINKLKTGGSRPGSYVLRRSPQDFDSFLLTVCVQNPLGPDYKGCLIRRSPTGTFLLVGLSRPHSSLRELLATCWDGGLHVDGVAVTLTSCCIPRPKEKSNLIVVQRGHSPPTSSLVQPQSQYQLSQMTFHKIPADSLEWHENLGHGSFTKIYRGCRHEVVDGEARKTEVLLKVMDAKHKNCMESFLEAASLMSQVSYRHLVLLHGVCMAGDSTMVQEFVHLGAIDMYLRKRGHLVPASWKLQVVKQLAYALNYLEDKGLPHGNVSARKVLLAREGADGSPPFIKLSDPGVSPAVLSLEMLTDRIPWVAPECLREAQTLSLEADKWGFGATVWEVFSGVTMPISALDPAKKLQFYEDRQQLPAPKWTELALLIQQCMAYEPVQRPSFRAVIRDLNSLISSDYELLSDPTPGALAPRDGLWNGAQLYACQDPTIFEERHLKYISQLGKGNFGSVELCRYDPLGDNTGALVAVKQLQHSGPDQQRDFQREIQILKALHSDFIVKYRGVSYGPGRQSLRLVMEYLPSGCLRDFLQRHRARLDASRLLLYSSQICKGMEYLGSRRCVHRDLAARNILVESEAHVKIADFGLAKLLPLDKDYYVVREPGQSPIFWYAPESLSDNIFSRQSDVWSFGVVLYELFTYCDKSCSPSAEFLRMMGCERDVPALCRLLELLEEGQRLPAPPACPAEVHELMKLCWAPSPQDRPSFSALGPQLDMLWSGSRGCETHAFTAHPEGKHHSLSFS
The following applies: JAK3; for remaining activity at 0.1 µM: 100 nM; for remaining activity at 0.1 µM / remaining activity at 0.5 µM: read-out: % Enzyme Activity (relative to DMSO controls).
From the text: as §1

Assay [4] concerns the target 363 human kinases (including Aurora A/B/C) (Homo sapiens, UniProt Q13233). The following applies: MEKK1; for remaining activity at 0.1 µM: 100 nM; for remaining activity at 0.1 µM / remaining activity at 0.5 µM: read-out: % Enzyme Activity (relative to DMSO controls).
From the text: as §1
Assay [5] concerns the target 363 human kinases (including Aurora A/B/C) (Homo sapiens, UniProt Q86Y07). The following applies: VRK2; for remaining activity at 0.1 µM: 100 nM; for remaining activity at 0.1 µM / remaining activity at 0.5 µM: read-out: % Enzyme Activity (relative to DMSO controls).
From the text: as §1
In assay [6] the target is 363 human kinases (including Aurora A/B/C) (Homo sapiens, UniProt P24723). The following applies: PKCeta; for remaining activity at 0.1 µM: 100 nM; for remaining activity at 0.1 µM / remaining activity at 0.5 µM: read-out: % Enzyme Activity (relative to DMSO controls).
From the text: as §1
For assay [7], the target named is 363 human kinases (including Aurora A/B/C) (Homo sapiens, UniProt Q08345). The following applies: DDR1, [ATP] 100 µM; for remaining activity at 0.1 µM: 100 nM; for remaining activity at 0.1 µM / remaining activity at 0.5 µM: read-out: % Enzyme Activity (relative to DMSO controls).
363 human kinases (including Aurora A/B/C) (Homo sapiens, UniProt Q08345), sequence (Q08345 19-913): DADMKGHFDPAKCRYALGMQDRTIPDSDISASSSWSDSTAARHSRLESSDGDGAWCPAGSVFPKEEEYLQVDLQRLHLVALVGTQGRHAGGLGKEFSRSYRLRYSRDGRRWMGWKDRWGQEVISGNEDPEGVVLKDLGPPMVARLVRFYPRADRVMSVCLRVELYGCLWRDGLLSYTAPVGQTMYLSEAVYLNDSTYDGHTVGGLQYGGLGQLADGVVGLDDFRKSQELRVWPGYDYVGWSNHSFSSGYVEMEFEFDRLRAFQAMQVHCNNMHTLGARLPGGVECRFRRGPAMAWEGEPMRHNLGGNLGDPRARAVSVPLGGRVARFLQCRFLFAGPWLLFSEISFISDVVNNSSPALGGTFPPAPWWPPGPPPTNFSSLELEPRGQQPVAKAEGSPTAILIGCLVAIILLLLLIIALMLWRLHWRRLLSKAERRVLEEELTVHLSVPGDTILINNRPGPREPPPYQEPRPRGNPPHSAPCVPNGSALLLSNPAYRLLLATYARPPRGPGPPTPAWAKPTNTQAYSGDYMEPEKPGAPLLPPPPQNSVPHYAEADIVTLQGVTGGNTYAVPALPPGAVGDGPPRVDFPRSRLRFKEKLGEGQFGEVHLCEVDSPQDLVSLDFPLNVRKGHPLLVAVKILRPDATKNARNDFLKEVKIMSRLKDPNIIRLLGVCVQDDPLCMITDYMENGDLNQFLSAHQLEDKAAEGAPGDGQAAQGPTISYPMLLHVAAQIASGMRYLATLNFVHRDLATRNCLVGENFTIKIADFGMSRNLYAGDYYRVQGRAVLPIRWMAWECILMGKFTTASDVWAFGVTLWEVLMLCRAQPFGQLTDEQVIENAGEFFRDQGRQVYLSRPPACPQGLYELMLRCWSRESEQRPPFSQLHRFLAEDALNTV
From the text: as §1

363 human kinases (including Aurora A/B/C) (Homo sapiens, UniProt Q86Y07), sequence (Q86Y07 whole entry): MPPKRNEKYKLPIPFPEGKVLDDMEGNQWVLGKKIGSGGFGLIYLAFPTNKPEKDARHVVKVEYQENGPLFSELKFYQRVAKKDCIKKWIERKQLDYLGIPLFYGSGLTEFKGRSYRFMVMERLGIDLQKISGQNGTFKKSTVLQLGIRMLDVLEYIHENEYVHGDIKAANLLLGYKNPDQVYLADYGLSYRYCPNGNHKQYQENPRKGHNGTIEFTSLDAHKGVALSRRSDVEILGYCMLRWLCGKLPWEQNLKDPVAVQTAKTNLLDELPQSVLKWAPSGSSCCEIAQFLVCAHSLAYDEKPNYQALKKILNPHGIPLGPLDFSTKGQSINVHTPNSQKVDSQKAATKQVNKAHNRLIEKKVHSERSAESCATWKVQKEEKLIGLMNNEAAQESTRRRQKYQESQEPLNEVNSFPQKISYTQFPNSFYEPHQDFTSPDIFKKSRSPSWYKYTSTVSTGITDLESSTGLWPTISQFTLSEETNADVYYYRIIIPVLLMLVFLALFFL
363 human kinases (including Aurora A/B/C) (Homo sapiens, UniProt P24723), sequence (P24723 whole entry): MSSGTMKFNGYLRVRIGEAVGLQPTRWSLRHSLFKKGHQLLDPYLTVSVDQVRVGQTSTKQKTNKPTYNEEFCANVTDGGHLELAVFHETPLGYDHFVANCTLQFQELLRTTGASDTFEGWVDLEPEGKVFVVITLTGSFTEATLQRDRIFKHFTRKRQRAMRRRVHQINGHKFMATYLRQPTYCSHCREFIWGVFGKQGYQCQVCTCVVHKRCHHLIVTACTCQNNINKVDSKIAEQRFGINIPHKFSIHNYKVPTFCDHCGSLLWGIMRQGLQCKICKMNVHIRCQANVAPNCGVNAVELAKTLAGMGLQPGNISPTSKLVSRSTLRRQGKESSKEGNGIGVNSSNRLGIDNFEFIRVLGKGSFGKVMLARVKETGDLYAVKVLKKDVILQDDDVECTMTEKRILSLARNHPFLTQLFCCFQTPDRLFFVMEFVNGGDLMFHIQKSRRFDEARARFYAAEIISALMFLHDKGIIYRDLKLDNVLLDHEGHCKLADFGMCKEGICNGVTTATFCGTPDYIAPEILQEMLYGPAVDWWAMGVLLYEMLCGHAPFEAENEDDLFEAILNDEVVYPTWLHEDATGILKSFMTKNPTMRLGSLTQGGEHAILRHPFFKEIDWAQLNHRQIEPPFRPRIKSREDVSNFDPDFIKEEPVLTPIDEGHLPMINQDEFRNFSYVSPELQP
363 human kinases (including Aurora A/B/C) (Homo sapiens, UniProt Q13555), sequence (Q13555 whole entry): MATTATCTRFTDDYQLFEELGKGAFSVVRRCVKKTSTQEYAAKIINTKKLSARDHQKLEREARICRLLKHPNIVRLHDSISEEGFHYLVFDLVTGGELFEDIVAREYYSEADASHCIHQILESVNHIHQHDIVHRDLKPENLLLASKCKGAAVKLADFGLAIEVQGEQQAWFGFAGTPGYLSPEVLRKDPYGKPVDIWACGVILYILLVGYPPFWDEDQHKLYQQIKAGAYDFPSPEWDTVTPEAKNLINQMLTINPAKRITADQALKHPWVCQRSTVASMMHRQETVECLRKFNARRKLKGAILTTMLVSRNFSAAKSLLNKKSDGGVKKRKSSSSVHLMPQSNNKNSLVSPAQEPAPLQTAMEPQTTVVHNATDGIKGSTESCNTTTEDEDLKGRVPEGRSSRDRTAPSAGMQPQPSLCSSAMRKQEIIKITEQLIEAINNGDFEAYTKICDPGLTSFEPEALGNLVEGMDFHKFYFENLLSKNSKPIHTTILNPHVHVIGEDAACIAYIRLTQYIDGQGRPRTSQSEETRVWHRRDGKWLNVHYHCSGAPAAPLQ
363 human kinases (including Aurora A/B/C) (Homo sapiens, UniProt Q13233), sequence (Q13233 whole entry): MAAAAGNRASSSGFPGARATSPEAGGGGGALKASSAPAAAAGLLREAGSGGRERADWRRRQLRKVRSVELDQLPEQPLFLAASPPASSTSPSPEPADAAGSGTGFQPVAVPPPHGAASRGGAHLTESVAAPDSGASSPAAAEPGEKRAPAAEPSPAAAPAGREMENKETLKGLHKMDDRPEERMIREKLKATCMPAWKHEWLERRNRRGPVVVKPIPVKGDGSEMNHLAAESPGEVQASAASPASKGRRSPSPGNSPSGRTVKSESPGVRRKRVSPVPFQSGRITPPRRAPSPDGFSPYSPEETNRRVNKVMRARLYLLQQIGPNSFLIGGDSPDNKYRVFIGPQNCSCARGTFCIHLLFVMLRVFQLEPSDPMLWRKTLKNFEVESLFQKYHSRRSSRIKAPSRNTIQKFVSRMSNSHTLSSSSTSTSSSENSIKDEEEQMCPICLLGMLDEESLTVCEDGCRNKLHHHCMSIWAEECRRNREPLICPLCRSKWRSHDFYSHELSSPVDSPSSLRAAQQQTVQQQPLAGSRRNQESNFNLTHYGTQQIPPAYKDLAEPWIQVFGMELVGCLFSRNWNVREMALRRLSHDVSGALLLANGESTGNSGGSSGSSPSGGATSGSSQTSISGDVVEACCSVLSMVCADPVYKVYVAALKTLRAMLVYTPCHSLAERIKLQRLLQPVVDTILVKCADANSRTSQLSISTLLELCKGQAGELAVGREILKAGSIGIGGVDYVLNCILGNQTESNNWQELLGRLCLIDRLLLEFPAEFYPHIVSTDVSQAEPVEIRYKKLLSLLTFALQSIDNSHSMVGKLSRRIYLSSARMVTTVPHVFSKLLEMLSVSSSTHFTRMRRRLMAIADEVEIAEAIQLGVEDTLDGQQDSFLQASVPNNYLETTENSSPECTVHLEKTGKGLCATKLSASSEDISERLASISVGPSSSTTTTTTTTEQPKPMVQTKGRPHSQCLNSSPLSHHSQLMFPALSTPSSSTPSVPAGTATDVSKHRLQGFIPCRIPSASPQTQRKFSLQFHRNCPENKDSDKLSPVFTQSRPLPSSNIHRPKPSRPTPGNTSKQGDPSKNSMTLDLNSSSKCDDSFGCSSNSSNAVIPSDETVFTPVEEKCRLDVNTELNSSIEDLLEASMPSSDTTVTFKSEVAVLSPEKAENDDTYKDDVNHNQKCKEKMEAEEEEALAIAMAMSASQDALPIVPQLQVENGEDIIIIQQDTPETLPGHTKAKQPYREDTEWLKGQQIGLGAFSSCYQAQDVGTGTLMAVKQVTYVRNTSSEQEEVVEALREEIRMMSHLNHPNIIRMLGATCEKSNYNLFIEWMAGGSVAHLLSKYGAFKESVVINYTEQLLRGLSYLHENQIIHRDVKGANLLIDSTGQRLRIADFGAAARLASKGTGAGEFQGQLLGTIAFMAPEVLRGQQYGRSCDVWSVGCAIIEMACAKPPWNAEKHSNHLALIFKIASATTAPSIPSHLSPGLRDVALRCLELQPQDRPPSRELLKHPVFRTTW

With `CCn1cc(-c2ccnc3[nH]c(-c4cccc(CN(C)C)c4)cc23)c(-c2ccc(NC(=O)N(C)C)cc2)n1` [GSK1070916], the remaining activity at 0.1 µM is 83.8% in assay [1]; 94.5% in assay [2]; 97.2% in assay [3]; 91.8% in assay [4]; 106% in assay [5]; 103% in assay [6]. Besides, in assay [7], the remaining activity at 0.1 µM was determined as 26.2%.
Consider `O=C(O)[C@]1(Cc2cccc(Nc3nccs3)n2)CC[C@@H](Oc2cccc(Cl)c2F)CC1` [MK-5108], for which the remaining activity at 0.1 µM came to 75.9% in assay [1]; 91.1% in assay [2]; 31.4% in assay [3]; 104% in assay [4]; 114% in assay [5]; 134% in assay [6]. The remaining activity at 0.1 µM in assay [7] turned out to be 7.97%. The remaining activity at 0.5 µM in assay [1] (500 nM) worked out at 40.6%; in assay [2] (500 nM), 94.4%; in assay [3] (500 nM) it was 6.75%; in assay [4] (500 nM), 87%; in assay [5] (500 nM), 91.7%; in assay [6] (500 nM), 115%. Besides, in assay [7] (500 nM), the remaining activity at 0.5 µM came to 1.89%.
On to `O=C(c1cccc(Cl)c1F)N1CCN(Cc2cccc(Nc3nccs3)n2)CC1` [MK-8745], for which the “% Enzyme Activity (relative to DMSO controls)” value in assay [1] (500 nM) amounted to 27.58%; in assay [2] (500 nM), 92.25%; in assay [3] (500 nM) it was 84.37%; in assay [4] (500 nM), 100.17%; in assay [5] (500 nM), 103.85%; in assay [6] (500 nM), 164.83%. Further, in assay [7] (500 nM), the “% Enzyme Activity (relative to DMSO controls)” value came to 19.23%. Also, the remaining activity at 0.5 µM was 29.3% in assay [1] (500 nM); 94.3% in assay [2] (500 nM); 85.6% in assay [3] (500 nM); 101% in assay [4] (500 nM); 107% in assay [5] (500 nM); 166% in assay [6] (500 nM). The remaining activity at 0.5 µM in assay [7] (500 nM) stood at 19.7%.

Source of the values: article PMC4685510, “A Cell Biologist’s Field Guide to Aurora Kinase Inhibitors” (Frontiers in Oncology, 2015).
